These results are taken from patent publication US9695193B2, “Inhibitors of Plasmodium falciparum equilibrative nucleoside transporter type I as anti-parasitic compounds” (The Trustees of Columbia University in the City of New York, priority 2013, dated 2017).

In the assay the target is T1, PfENT1 (Plasmodium falciparum, UniProt Q8IDM6).
T1 construct: expressed in transfected cells; host or cells: fui1Δ yeast (Saccharomyces cerevisiae), co-expressing GFP
In kind it is cell-based. The settings on record: primary HTS, compounds at 10 μM, 125 μM 5-FUrd. Summed up:
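fui1Δ yeast expressing PfENT1 and GFP were grown with 125 μM 5-fluorouridine, so growth reflects blocked 5-FUrd uptake. Compounds were screened at 10 μM. Growth scored by OD620 turbidity and GFP fluorescence, and hits had to be positive on both.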

T1 sequence (Q8IDM6 whole entry): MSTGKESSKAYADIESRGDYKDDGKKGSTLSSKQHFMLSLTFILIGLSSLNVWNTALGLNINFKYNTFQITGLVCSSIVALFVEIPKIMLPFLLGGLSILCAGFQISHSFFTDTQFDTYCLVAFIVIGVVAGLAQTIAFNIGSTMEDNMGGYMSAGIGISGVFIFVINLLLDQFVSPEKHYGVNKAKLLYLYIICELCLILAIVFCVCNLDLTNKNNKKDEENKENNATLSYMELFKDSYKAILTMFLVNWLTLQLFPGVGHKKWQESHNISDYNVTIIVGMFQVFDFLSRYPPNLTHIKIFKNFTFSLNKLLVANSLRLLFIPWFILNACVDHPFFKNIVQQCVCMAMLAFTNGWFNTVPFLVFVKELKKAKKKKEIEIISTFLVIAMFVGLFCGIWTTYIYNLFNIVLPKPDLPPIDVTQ

As for `O=C(C1CCCCC1)N1CCN(c2ccccn2)CC1` [compound 130, 1-(cyclohexylcarbonyl)-4-(2-pyridinyl)piperazine], the “Avg Normalized % maximal activity” value worked out at 3.69%.

For `CC[S+](CC)c1c([O-])[nH]c(=O)n(Cc2ccc(F)cc2)c1=O` [compound 131, 5-(diethylsulfonio)-1-(4-fluorobenzyl)-2,6-dioxo-1,2,3,6-tetrahydro-4-pyrimidinolate], the “Avg Normalized % maximal activity” value amounted to 3.65%. Consider `O=C(Nc1ccc(-c2nnc(-c3ccccc3)o2)cc1)c1ccccc1Cl` [compound 132], for which the “Avg Normalized % maximal activity” value is 3.60%.

Consider `COc1ccc(C2CC(c3ccccc3C)n3nc(N)nc3N2)cc1` (stereo not drawn) [compound 133, 5-(4-methoxyphenyl)-7-(2-methylphenyl)-4,5,6,7-tetrahydro[1,2,4] triazolo[1,5-a]pyrimidin-2-amine], for which the “Avg Normalized % maximal activity” value is 3.57%. Consider `Cc1cc(=O)oc2cc(OCc3ccc4c(c3)OCO4)ccc12` [compound 134, 7-(1,3-benzodioxol-5-ylmethoxy)-4-methyl-2H-chromen-2-one], for which the “Avg Normalized % maximal activity” value came to 3.56%. As for `C[N+]1(C)C2CC(OC(=O)[C@H](CO)c3ccccc3)CC1C1OC12` (stereo partly drawn) [compound 135], the figure is 3.47%; as for `Cc1ccc2n1CCN(C(=O)c1ccc(S(=O)(=O)N(C)C)cc1)C2C` (stereo not drawn) [compound 136], 3.43%. As for `O=C(Nc1cccc(NC(=O)c2cccs2)c1)c1ccc(Br)o1` [compound 137, 5-bromo-N-{3-[(2-thienylcarbonyl)amino]phenyl}-2-furamide], the figure is 3.37%. As for `COc1cc(C(=O)Nc2ccc(C(=O)c3cccs3)cc2)cc(OC)c1OC` [compound 138, 3,4,5-trimethoxy-N-[4-(2-thienylcarbonyl)phenyl]benzamide], the figure is 3.31%; as for `Cc1cc(C)nc(NC(=O)c2cc3c(s2)CCCC3)n1` [compound 139, N-(4,6-dimethyl-2-pyrimidinyl)-4,5,6,7-tetrahydro-1-benzothiophene-2-carboxamide], 3.27%; as for `CCOc1ccc2c(C)cc(=O)oc2c1C` [compound 140, 7-ethoxy-4,8-dimethyl-2H-chromen-2-one], 3.21%. With `Cc1cc(-c2ccccc2)nc(SCc2nc3ccccc3c(=O)[nH]2)n1` [compound 141, 2-{[(4-methyl-6-phenyl-2-pyrimidinyl)thio]methyl}-4(3H)-quinazolinone], the “Avg Normalized % maximal activity” value stood at 3.21%. On to `COc1ccc(-c2nnc(SCc3csc(C)n3)o2)cc1OC` [compound 142, 2-(3,4-dimethoxyphenyl)-5-{[(2-methyl-1,3-thiazol-4-yl)methyl]thio}-1,3,4-oxadiazole], for which the “Avg Normalized % maximal activity” value is 3.09%. As for `CC(=O)c1ccc(NC(=O)CSc2nnc3c4ccccc4n(C)c3n2)cc1` [compound 143, N-(4-acetylphenyl)-2-[(5-methyl-5H-[1,2,4]triazino [5,6-b]indol-3-yl)thio]acetamide], the figure is 3.07%; as for `Cc1cc2nc(Nc3nc(=O)c(C)c(C)[nH]3)nc(C)c2cc1C` [compound 144, 5,6-dimethyl-2-[(4,6,7-trimethyl-2-quinazolinyl)amino]-4(1H)-pyrimidinone], 3.04%; as for `O=C(Nc1cccc(-c2nc3ncccc3o2)c1)c1ccc2c(c1)OCCO2` [compound 145, N-(3-[1,3]oxazolo[4,5-b]pyridin-2-ylphenyl)-2,3-dihydro-1,4-benzodioxine-6-carboxamide], 3.02%. With `Br.Cc1ccnc(Nc2nc(-c3cccnc3)cs2)c1` [compound 146, 4-methyl-N-[4-(3-pyridinyl)-1,3-thiazol-2-yl]-2-pyridinamine hydrobromide], the “Avg Normalized % maximal activity” value was 2.97%. As for `CC(=O)c1ccc(NC(=O)CSc2nc3cc(C)ccc3[nH]2)cc1` [compound 147, N-(4-acetylphenyl)-2-[(5-methyl-1H-benzimidazol-2-yl)thio]acetamide], the figure is 2.77%; as for `O=C(Nc1sc2c(c1CNC1CCCCC1)CCCC2)c1ccccc1` [compound 148, N-{3-[(cyclohexylamino)methyl]-4,5,6,7-tetrahydro-1-benzothien-2-yl} benzamide], 2.74%; as for `Cc1ccc(C(=O)c2cccc(NC(=O)c3cccs3)c2)cc1C` [compound 149, N-[3-(3,4-dimethylbenzoyl)phenyl]-2-thiophene-carboxamide], 2.71%. For the compound `Cn1c(=O)oc2cc(S(=O)(=O)Nc3ccccc3Br)ccc21` [compound 150, N-(2-bromophenyl)-3-methyl-2-oxo-2,3-dihydro-1,3-benzoxazole-6-sulfonamide], the “Avg Normalized % maximal activity” value is given as 2.62%.

For `O=C(O)c1ccc(S(=O)(=O)N(Cl)Cl)cc1` [compound 151], the “Avg Normalized % maximal activity” value is on record as 2.60%.

Take `COc1ccc(Cl)cc1C(=O)Nc1cc(C)ccn1` [compound 152, 5-chloro-2-methoxy-N-(4-methyl-2-pyridinyl)benzamide]: the “Avg Normalized % maximal activity” value stood at 2.56%.

Take `CN(C(=O)c1cc2c(=O)n3ccccc3nc2n1C)C1CCCCC1` [compound 153, N-cyclohexyl-N,1-dimethyl-4-oxo-1,4-dihydropyrido [1,2-a]pyrrolo[2,3-d] pyrimidine-2-carboxamide]: the “Avg Normalized % maximal activity” value was 2.37%. With `COc1ccc(NC(=O)C2CCN(C(=O)c3ccc(F)cc3)CC2)c(OC)c1` [compound 154, N-(2,4-dimethoxyphenyl)-1-(4-fluorobenzoyl)-4-piperidinecarboxamide], the “Avg Normalized % maximal activity” value came to 2.30%. Under `CN1CCN(S(=O)(=O)c2ccc(C(=O)Nc3ccccc3)cc2)CC1` [compound 155, 4-[(4-methyl-1-piperazinyl)sulfonyl]-N-phenylbenzamide] stands 2.20%; under `CCCCC(=O)Nc1ccc(NC(=O)c2cccs2)cc1OC` [compound 156, N-[3-methoxy-4-(pentanoylamino)phenyl]-2-thiophenecarboxamide], 2.17%; under `Cc1ccc(NC(=O)CSc2nc3cccnc3[nH]2)c(C)c1` [compound 157, N-(2,4-dimethylphenyl)-2-(3H-imidazo[4,5-b]pyridin-2-ylthio)acetamide], 2.12%. `COc1ccccc1C(=O)Nc1nnc(COc2ccc(C)cc2)s1` [compound 158, 2-methoxy-N-{5-[(4-methylphenoxy)methyl]-1,3,4-thiadiazol-2-yl}benzamide]: the “Avg Normalized % maximal activity” value amounted to 2.12%. With `COc1cccc(C(CC(=O)O)S(C)(=O)=O)c1` (stereo not drawn) [compound 159], the “Avg Normalized % maximal activity” value was 2.12%.

`CC(=O)Nc1ccc2nc(SCC(=O)NC3CCCCC3)sc2c1` [compound 160]: the “Avg Normalized % maximal activity” value is on record as 2.09%.

For `CCOC(=O)CSc1nnc2c3ccccc3n(CC)c2n1` [compound 161], the “Avg Normalized % maximal activity” value is listed as 2.08%. As for `COCc1cc(C)nc2sc(C(=O)Nc3ccc(NC(C)=O)cc3)c(N)c12` [compound 162, N-[4-(acetylamino)phenyl]-3-amino-4-(methoxymethyl)-6-methylthieno [2,3-b]pyridine-2-carboxamide], the figure is 2.04%. Under `COc1ccc(OC)c(NC(=O)COc2ccc3ccccc3c2)c1` [compound 163, N-(2,5-dimethoxyphenyl)-2-(2-naphthyloxy)acetamide] stands 2.04%. As to `O=[N+]([O-])c1ccc(C2Nc3c(F)cccc3C3C=CCC32)cc1` (stereo not drawn) [compound 164, 6-fluoro-4-(4-nitrophenyl)-3a,4,5,9b-tetrahydro-3H-cyclopenta[c]quinoline], the “Avg Normalized % maximal activity” value was 2.01%. As for `CCC(C(=O)NCc1cccs1)c1ccccc1` (stereo not drawn) [compound 165, 2-phenyl-N-(2-thienylmethyl)butanamide], the figure is 2.01%; as for `O=c1c2c3nc4ccccc4nc3n(Cc3ccco3)c2ncn1Cc1ccco1` [compound 166], 1.98%. `O=C(Nc1c(-c2ccccc2)nc2ccc(Cl)cn12)c1ccccc1` [compound 167, N-(6-chloro-2-phenylimidazo [1,2-a]pyridin-3-yl)benzamide]: the “Avg Normalized % maximal activity” value is 1.96%. As for `CC(=O)Nc1ccc(NC(=O)CSc2nc3ccccc3s2)cc1` [compound 168, N-[4-(acetylamino)phenyl]-2-(1,3-benzothiazol-2-ylthio)acetamide], the figure is 1.93%. Under `Cc1ccc(NC(=O)Nc2ccc(F)cc2)nc1` [compound 169, N-(4-fluorophenyl)-N′-(5-methyl-2-pyridinyl)urea] stands 1.85%; under `O=C(c1cc2nc3c(c(C(F)(F)F)n2n1)CCc1ccccc1-3)N1CCCC1` [compound 170, 10-(1-pyrrolidinyl-carbonyl)-7-(trifluoromethyl)-5,6-dihydrobenzo[h] pyrazolo[5,1-b] quinazoline], 1.74%; under `COc1ccc(OC)c(NC(=O)CC2Nc3cc(C)c(C)cc3NC2=O)c1` (stereo not drawn) [compound 171, N-(2,5-dimethoxyphenyl)-2-(6,7-dimethyl-3-oxo-1,2,3,4-tetrahydro-2-quinoxalinyl)acetamide], 1.60%.
